In patent US8999970B2, “Administration of an anti-obesity compound to individuals with renal impairment” (Arena Pharmaceuticals, Inc., priority 2010, dated 2015):

Tests used:
[1] = Preclinical toxicology: M1 and M5 pharmacokinetics after oral administration of lorcaserin, 52 wk, rats
[2] = Clinical trial APD356-016: plasma and urine pharmacokinetics of lorcaserin, M1 and M5 after a 10 mg dose in subjects with renal impairment; settings: for tmax: median; for Ae0-120 / fe0-120: urine
In short: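 Single 10 mg lorcaserin dose in subjects grouped by renal function; plasma and urine sampled for lorcaserin, M1 and M5. Groups set by creatinine clearance from ideal body weight, with actual-weight regrouping also summarised; the dialysis subject counted as end-stage renal disease.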

[3] = Preclinical toxicology: M1 and M5 pharmacokinetics after oral administration of lorcaserin, 52 wk, mice
[4] = lorcaserin 10 mg/kg/day oral, F
[5] = lorcaserin 10 mg/kg/day oral, M
[6] = lorcaserin 30 mg/kg/day oral, F
[7] = lorcaserin 30 mg/kg/day oral, M
[8] = lorcaserin 100 mg/kg/day oral, F
[9] = lorcaserin 100 mg/kg/day oral, M
[10] = 10 mg dose, Mild, actual BW groups
[11] = 10 mg dose, Mild, ideal BW groups
[12] = 10 mg dose, Moderate, actual BW groups
[13] = 10 mg dose, Moderate, ideal BW groups
[14] = 10 mg dose, Normal, actual BW groups
[15] = 10 mg dose, Normal, ideal BW groups
[16] = 10 mg dose, Severe N = 1, actual BW groups
[17] = 10 mg dose, Severe, ideal BW groups
[18] = ESRD, 10 mg QD Authentic, Day 1
[19] = Mild, 10 mg QD Authentic, Day 1
[20] = Moderate, 10 mg QD Authentic, Day 1
[21] = Normal, 10 mg QD Authentic, Day 1
[22] = Severe, 10 mg QD Authentic, Day 1
[23] = lorcaserin 25 mg/kg/day oral, F
[24] = lorcaserin 25 mg/kg/day oral, M
[25] = lorcaserin 50 mg/kg/day oral, F
[26] = lorcaserin 50 mg/kg/day oral, M

C[C@H]1CN(C(=O)O[C@@H]2O[C@H](C(=O)O)[C@@H](O)[C@H](O)[C@H]2O)CCc2ccc(Cl)cc21 [Compound M5, N-carbamoyl glucuronide of lorcaserin]
AUC0-inf [1, 4]: 349 ng·h/mL
AUClast [1, 4]: 273 ng·h/mL
Cmax [1, 4]: 53.8 ng/mL
tmax [1, 4]: 0.5 h
AUC0-inf [1, 5]: 602 ng·h/mL
AUClast [1, 5]: 550 ng·h/mL
Cmax [1, 5]: 178 ng/mL
tmax [1, 5]: 1.0 h
AUC0-inf [1, 6]: 1960 ng·h/mL
AUClast [1, 6]: 1620 ng·h/mL
Cmax [1, 6]: 337 ng/mL
tmax [1, 6]: 1.0 h
AUC0-inf [1, 7]: 3100 ng·h/mL
AUClast [1, 7]: 3070 ng·h/mL
Cmax [1, 7]: 559 ng/mL
tmax [1, 7]: 0.5 h
AUC0-inf [1, 8]: 12800 ng·h/mL
AUClast [1, 8]: 11100 ng·h/mL
Cmax [1, 8]: 1200 ng/mL
tmax [1, 8]: 2.0 h
AUC0-inf [1, 9]: 16500 ng·h/mL
AUClast [1, 9]: 14900 ng·h/mL
Cmax [1, 9]: 2030 ng/mL
tmax [1, 9]: 0.5 h
% AUC Extrapolated ([2]; 10 mg dose, ESRD (Period 1)): 14.7%
AUC0-inf ([2]; 10 mg dose, ESRD (Period 1)): 11200 ng·h/mL
AUC(0-t) ([2]; 10 mg dose, ESRD (Period 1)): 9530 ng·h/mL
AUClast ([2]; 10 mg dose, ESRD (Period 1)): 9530 ng·h/mL
Cmax ([2]; 10 mg dose, ESRD (Period 1)): 300 ng/mL
MRTinf ([2]; 10 mg dose, ESRD (Period 1)): 38.6 h
t1/2z ([2]; 10 mg dose, ESRD (Period 1)): 25.7 h
tmax ([2]; 10 mg dose, ESRD (Period 1)): 3.00 h
% AUC Extrapolated ([2]; 10 mg dose, ESRD (Period 2)): 26.9%
AUC0-inf ([2]; 10 mg dose, ESRD (Period 2)): 11900 ng·h/mL
AUC(0-t) ([2]; 10 mg dose, ESRD (Period 2)): 8240 ng·h/mL
AUClast ([2]; 10 mg dose, ESRD (Period 2)): 8240 ng·h/mL
Cmax ([2]; 10 mg dose, ESRD (Period 2)): 231 ng/mL
MRTinf ([2]; 10 mg dose, ESRD (Period 2)): 59.1 h
t1/2z ([2]; 10 mg dose, ESRD (Period 2)): 40.5 h
tmax ([2]; 10 mg dose, ESRD (Period 2)): 3.10 h
% AUC0-inf Extrapolated [2, 10]: 14.5%
AUC0-inf [2, 10]: 1040 ng·h/mL
AUClast [2, 10]: 914 ng·h/mL
Cmax [2, 10]: 91.9 ng/mL
MRTinf [2, 10]: 16.6 h
T1/2z [2, 10]: 13.5 h
tmax [2, 10]: 2 h
% AUC0-inf Extrapolated [2, 11]: 17.7%
AUC0-inf [2, 11]: 583 ng·h/mL
AUC(0-t) [2, 11]: 482 ng·h/mL
Cmax [2, 11]: 62.4 ng/mL
MRTinf [2, 11]: 13.5 h
T1/2z [2, 11]: 10.7 h
tmax [2, 11]: 2.00 h
% AUC0-inf Extrapolated [2, 12]: 12.1%
AUC0-inf [2, 12]: 1700 ng·h/mL
AUClast [2, 12]: 1510 ng·h/mL
Cmax [2, 12]: 134 ng/mL
MRTinf [2, 12]: 18.5 h
T1/2z [2, 12]: 14.4 h
tmax [2, 12]: 2 h
% AUC0-inf Extrapolated [2, 13]: 15.6%
AUC0-inf [2, 13]: 1100 ng·h/mL
AUC(0-t) [2, 13]: 944 ng·h/mL
Cmax [2, 13]: 96.4 ng/mL
MRTinf [2, 13]: 18.5 h
T1/2z [2, 13]: 15.4 h
tmax [2, 13]: 2.00 h
% AUC0-inf Extrapolated [2, 14]: 23.1%
AUC0-inf [2, 14]: 498 ng·h/mL
AUClast [2, 14]: 381 ng·h/mL
Cmax [2, 14]: 66.2 ng/mL
MRTinf [2, 14]: 14.2 h
T1/2z [2, 14]: 11.7 h
tmax [2, 14]: 2 h
% AUC0-inf Extrapolated [2, 15]: 26.3%
AUC0-inf [2, 15]: 475 ng·h/mL
AUC(0-t) [2, 15]: 345 ng·h/mL
Cmax [2, 15]: 70.5 ng/mL
MRTinf [2, 15]: 14.6 h
T1/2z [2, 15]: 12.2 h
tmax [2, 15]: 1.00 h
% AUC0-inf Extrapolated [2, 16]: 2.59%
AUC0-inf [2, 16]: 6480 ng·h/mL
AUClast [2, 16]: 6310 ng·h/mL
Cmax [2, 16]: 214 ng/mL
MRTinf [2, 16]: 33.4 h
T1/2z [2, 16]: 23.1 h
tmax [2, 16]: 4 h
% AUC0-inf Extrapolated [2, 17]: 8.46%
AUC0-inf [2, 17]: 2470 ng·h/mL
AUC(0-t) [2, 17]: 2290 ng·h/mL
Cmax [2, 17]: 153 ng/mL
MRTinf [2, 17]: 20.0 h
T1/2z [2, 17]: 14.9 h
tmax [2, 17]: 2.50 h
Ae0-120 [2, 10]: 7470 µg
fe0-120 [2, 10]: 0.417
Ae0-120 [2, 11]: 7160 µg
fe0-120 [2, 11]: 0.399
Ae0-120 [2, 12]: 6480 µg
fe0-120 [2, 12]: 0.361
Ae0-120 [2, 13]: 8000 µg
fe0-120 [2, 13]: 0.446
Ae0-120 [2, 14]: 8210 µg
fe0-120 [2, 14]: 0.458
Ae0-120 [2, 15]: 8540 µg
fe0-120 [2, 15]: 0.476
Ae0-120 [2, 16]: 6720 µg
fe0-120 [2, 16]: 0.375
Ae0-120 [2, 17]: 6300 µg
fe0-120 [2, 17]: 0.351
Amount in the body cleared during a standard 4-hour hemodialysis procedure ([2]; ESRD): Approximately 18%
Hemodialysis extraction ratio ([2]; ESRD): 18.4%
Removal by hemodialysis ([2]; ESRD): partially removed
AUC24 hr [2, 18]: 9530 ng·h/mL
Cmax [2, 18]: 300 ng/mL
t1/2 [2, 18]: 25.7 h
AUC24 hr [2, 19]: 482 ng·h/mL
Cmax [2, 19]: 62.4 ng/mL
t1/2 [2, 19]: 10.7 h
AUC24 hr [2, 20]: 944 ng·h/mL
Cmax [2, 20]: 96.4 ng/mL
t1/2 [2, 20]: 15.4 h
AUC24 hr [2, 21]: 345 ng·h/mL
Cmax [2, 21]: 70.5 ng/mL
t1/2 [2, 21]: 12.2 h
AUC24 hr [2, 22]: 2290 ng·h/mL
Cmax [2, 22]: 153 ng/mL
t1/2 [2, 22]: 14.9 h
Exposure (Geometric Mean Ratio for AUCinf) increase compared to normal subjects ([2]; mild (CLcr=51-80 mL/min)): 1.2 fold
Terminal half-life prolonged by ([2]; mild renal impairment): 0%
Exposure (Geometric Mean Ratio for AUCinf) increase compared to normal subjects ([2]; moderate (CLcr=31-50 mL/min)): 2.3 fold
Terminal half-life prolonged by ([2]; moderate renal impairment): 26%
Fractional excretion ([2]; normal renal function): 48%
Exposure (Geometric Mean Ratio for AUCinf) increase compared to normal subjects ([2]; severe (CLcr=5-30 mL/min)): 5.2 fold
Fractional excretion ([2]; severe renal impairment): 35%
Terminal half-life prolonged by ([2]; severe renal impairment): 22%
Highest individual AUC0-inf in a subject not on hemodialysis ([2]; subject 3140-010, creatinine clearance 9.9 mL/min): 6480 ng·h/mL
Highest observed Cmax in the clinical study ([2]; subject with ESRD (#3140-505)): 520 ng/mL
Highest AUC0-inf overall ([2]; subject with ESRD on hemodialysis): 20800 ng·h/mL
AUC0-inf ([3]; lorcaserin 5 mg/kg/day oral, F): 201 ng·h/mL
AUClast ([3]; lorcaserin 5 mg/kg/day oral, F): 184 ng·h/mL
Cmax ([3]; lorcaserin 5 mg/kg/day oral, F): 100 ng/mL
tmax ([3]; lorcaserin 5 mg/kg/day oral, F): 0.5 h
AUC0-inf ([3]; lorcaserin 5 mg/kg/day oral, M): 178 ng·h/mL
AUClast ([3]; lorcaserin 5 mg/kg/day oral, M): 134 ng·h/mL
Cmax ([3]; lorcaserin 5 mg/kg/day oral, M): 98.3 ng/mL
tmax ([3]; lorcaserin 5 mg/kg/day oral, M): 0.5 h
AUClast [3, 23]: 1210 ng·h/mL
Cmax [3, 23]: 431 ng/mL
tmax [3, 23]: 0.5 h
AUClast [3, 24]: 1840 ng·h/mL
Cmax [3, 24]: 590 ng/mL
tmax [3, 24]: 0.5 h
AUC0-inf [3, 25]: 3260 ng·h/mL
AUClast [3, 25]: 3230 ng·h/mL
Cmax [3, 25]: 824 ng/mL
tmax [3, 25]: 0.5 h
AUC0-inf [3, 26]: 3470 ng·h/mL
AUClast [3, 26]: 3420 ng·h/mL
Cmax [3, 26]: 1000 ng/mL
tmax [3, 26]: 0.5 h
